From patent publication US7524832B2, “Combretastatin A-4 phosphate prodrug mono-and di-organic amine salts, mono-and di-amino acid salts and mono-and di-amino acid ester salts” (priority 2000, dated 2009)
Structures can show the parent of a compound that is named as a salt.

Tests used:
[1] = hygroscopicity (moisture sorption/desorption); format: physicochemical; conditions: 25° C., ambient and high humidity conditions
Description: The data was obtained using a VTI Model MB-300W Moisture balance with relative humidity levels from 10% to 90% in increments of 10%. The maximum equilibration time at each humidity was set at 4 hours.
As used herein, the term “nonhygroscopic”, in reference to a compound, preferably denotes no measurable weight gain per weight of compound as measured above.
This was an unexpected result, because other salt forms of CA4P free acid are hygroscopic under similar conditions. Variable relative humidity-X-ray diffraction (“RH-XRD”) experiments have shown that the powder pattern remains unchanged on exposure to different humidities at 25° C.

[2] = solid-state chemical stability; format: physicochemical; conditions: ambient and accelerated conditions of temperature and humidity
physchem = conditions: 25 °C, thermodynamic from solid
[3] = test system: murine L1210 lymphocytic leukemia cell line; conditions: NCI murine L1210; cited from earlier work
[4] = test system: murine P338 lymphocytic leukemia cell line; conditions: NCI murine P338; cited from earlier work
microtubulin assembly = conditions: cited from earlier work
[5] = cited from earlier work

SMILES	hygroscopicity [1]	chemical stability in the solid-state [2]	solubility (physchem; pH 4.8, water)	solubility (physchem; pH 8.2, aqueous buffer)	activity against L1210 lymphocytic leukemia cell line [3]	activity against P338 lymphocytic leukemia cell line [4]	inhibition of microtubulin assembly (microtubulin assembly)	solubility in water [5]
COc1ccc(/C=C\c2cc(OC)c(OC)c(OC)c2)cc1OP(=O)(O)O [CA4P mono TRIS salt, CA4P mono-tromethamine salt]	practically nonhygroscopic	good chemical stability	3.37 mg/mL	191 mg/mL				
COc1ccc(/C=C\c2cc(OC)c(OC)c(OC)c2)cc1O [combretastatin A-4]					significantly active	significantly active	potent inhibitor	essentially insoluble in water
